According to publication PMC5218480 (PLoS ONE, 2017):

Test system: MV-4-11 cells
Test: Gene expression microarray analysis (Affymetrix PrimeView) and GSEA
Type: cell-based, human
Set-up: RFU PODN (11730768_x_at) / Fold change /veh PODN (11730768_x_at) / RFU LINC00158 (11744669_a_at) / Fold change /veh LINC00158 (11744669_a_at) / RFU DUSP10 (11751237_a_at) / Fold change /veh DUSP10 (11751237_a_at) / RFU ID3 (11757404_x_at) / Fold change /veh ID3 (11757404_x_at) / RFU PLEKHG5 (11737974_s_at) / Fold change /veh PLEKHG5 (11737974_s_at) / RFU LRRC4B (11730491_at) / Fold change /veh LRRC4B (11730491_at) / RFU GIMAP4 (11747438_a_at) / Fold change /veh GIMAP4 (11747438_a_at) / RFU KRT8 (11758183_x_at) / Fold change /veh KRT8 (11758183_x_at) / RFU CNN1 (11734310_a_at) / Fold change /veh CNN1 (11734310_a_at) / RFU VPS37D (11726825_at) / Fold change /veh VPS37D (11726825_at) / RFU C10orf10 (11716522_x_at) / Fold change /veh C10orf10 (11716522_x_at) / RFU KIR2DL2 /// KIR2DL4 /// KIR2DL5A /// KIR2DL5B /// KIR2DS1 /// KIR2DS2 /// KIR2DS3 /// KIR2DS4 /// KIR3DL3 /// KIR3DL3 /// KIR3DS1 (11738374_at) / Fold change /veh KIR2DL2 /// KIR2DL4 /// KIR2DL5A /// KIR2DL5B /// KIR2DS1 /// KIR2DS2 /// KIR2DS3 /// KIR2DS4 /// KIR3DL3 /// KIR3DL3 /// KIR3DS1 (11738374_at) / RFU C1QL1 (11718748_at) / Fold change /veh C1QL1 (11718748_at) / RFU TMPRSS4 (11747572_a_at) / Fold change /veh TMPRSS4 (11747572_a_at) / RFU HAMP (11756126_x_at) / Fold change /veh HAMP (11756126_x_at) / RFU RNFT2 (11725882_a_at) / Fold change /veh RNFT2 (11725882_a_at) / RFU NR4A2 (11747474_a_at) / Fold change /veh NR4A2 (11747474_a_at) / RFU ABCC12 (11746883_a_at) / Fold change /veh ABCC12 (11746883_a_at) / RFU TMEM136 (11760407_x_at) / Fold change /veh TMEM136 (11760407_x_at) / RFU CLDN22 /// WWC2 (11732394_at) / Fold change /veh CLDN22 /// WWC2 (11732394_at) / RFU HLA-DPB1 (11760878_x_at) / Fold change /veh HLA-DPB1 (11760878_x_at) / RFU SPINT1 (11716480_a_at) / Fold change /veh SPINT1 (11716480_a_at) / RFU GAP43 (11754022_s_at) / Fold change /veh GAP43 (11754022_s_at) / RFU A4GNT (11735810_at) / Fold change /veh A4GNT (11735810_at) / RFU PRB3 (11715151_x_at) / Fold change /veh PRB3 (11715151_x_at) / RFU TUBB4B (11761932_at) / Fold change /veh TUBB4B (11761932_at) / RFU CAPN14 (11732068_a_at) / Fold change /veh CAPN14 (11732068_a_at) / RFU TMCC2 (11721928_a_at) / Fold change /veh TMCC2 (11721928_a_at) / RFU IRGQ (11745062_a_at) / Fold change /veh IRGQ (11745062_a_at) / RFU FAM174B (11720279_a_at) / Fold change /veh FAM174B (11720279_a_at) / RFU TMPRSS4 (11748680_a_at) / Fold change /veh TMPRSS4 (11748680_a_at) / RFU FAM212B (11763350_a_at) / Fold change /veh FAM212B (11763350_a_at) / RFU PLEKHG5 (11743358_a_at) / Fold change /veh PLEKHG5 (11743358_a_at) / RFU ZSCAN30 (11745921_a_at) / Fold change /veh ZSCAN30 (11745921_a_at) / RFU CMKLR1 (11741424_a_at) / Fold change /veh CMKLR1 (11741424_a_at) / RFU LOC101060620 /// MAPK8IP1 (11723275_at) / Fold change /veh LOC101060620 /// MAPK8IP1 (11723275_at) / RFU SPTSSB (11747773_x_at) / Fold change /veh SPTSSB (11747773_x_at) / RFU PRSS12 (11739890_at) / Fold change /veh PRSS12 (11739890_at) / RFU BIN1 (11741810_x_at) / Fold change /veh BIN1 (11741810_x_at) / RFU WNT11 (11732464_a_at) / Fold change /veh WNT11 (11732464_a_at) / RFU C10orf10 (11716521_a_at) / Fold change /veh C10orf10 (11716521_a_at) / RFU C5orf56 (11738089_at) / Fold change /veh C5orf56 (11738089_at) / RFU CYB561 (11721691_x_at) / Fold change /veh CYB561 (11721691_x_at) / RFU ANKRD19P (11752326_a_at) / Fold change /veh ANKRD19P (11752326_a_at) / RFU OR2T12 /// OR2T33 /// OR2T8 (11738714_s_at) / Fold change /veh OR2T12 /// OR2T33 /// OR2T8 (11738714_s_at) / RFU VCAN (11748164_a_at) / Fold change /veh VCAN (11748164_a_at) / RFU JSRP1 (11732532_at) / Fold change /veh JSRP1 (11732532_at) / RFU KRTAP10-11 (11738290_x_at) / Fold change /veh KRTAP10-11 (11738290_x_at) / RFU MYO3A (11730013_a_at) / Fold change /veh MYO3A (11730013_a_at) / RFU EBF3 (11725865_a_at) / Fold change /veh EBF3 (11725865_a_at) / RFU CAMK2N1 (11719241_x_at) / Fold change /veh CAMK2N1 (11719241_x_at) / RFU C5orf56 (11738088_a_at) / Fold change /veh C5orf56 (11738088_a_at) / RFU OLFML3 (11715873_a_at) / Fold change /veh OLFML3 (11715873_a_at) / RFU LOC100653217 /// NTM (11731650_a_at) / Fold change /veh LOC100653217 /// NTM (11731650_a_at) / RFU MAPK11 (11762145_a_at) / Fold change /veh MAPK11 (11762145_a_at) / RFU FIZ1 (11724087_x_at) / Fold change /veh FIZ1 (11724087_x_at) / RFU OASL (11726364_x_at) / Fold change /veh OASL (11726364_x_at) / RFU SOX15 (11748057_x_at) / Fold change /veh SOX15 (11748057_x_at) / RFU CD79A (11719716_a_at) / Fold change /veh CD79A (11719716_a_at) / RFU HIST1H1D (11736915_at) / Fold change /veh HIST1H1D (11736915_at) / RFU CASKIN2 (11723855_a_at) / Fold change /veh CASKIN2 (11723855_a_at) / RFU LOC730098 (11760151_x_at) / Fold change /veh LOC730098 (11760151_x_at) / RFU OR4N2 (11742367_at) / Fold change /veh OR4N2 (11742367_at) / RFU PRRT2 (11749266_a_at) / Fold change /veh PRRT2 (11749266_a_at) / RFU SNX32 (11753110_a_at) / Fold change /veh SNX32 (11753110_a_at) / RFU CDHR5 (11726645_a_at) / Fold change /veh CDHR5 (11726645_a_at) / RFU RCAN1 (11760418_a_at) / Fold change /veh RCAN1 (11760418_a_at) / RFU FAM167A (11723789_a_at) / Fold change /veh FAM167A (11723789_a_at) / RFU FAM26E (11764081_at) / Fold change /veh FAM26E (11764081_at) / RFU ISYNA1 (11749810_s_at) / Fold change /veh ISYNA1 (11749810_s_at) / RFU ACY1 (11761880_at) / Fold change /veh ACY1 (11761880_at) / RFU 11764098_at / Fold change /veh 11764098_at / RFU SAMD14 (11745864_x_at) / Fold change /veh SAMD14 (11745864_x_at) / RFU NPB (11741838_a_at) / Fold change /veh NPB (11741838_a_at) / RFU TMPRSS6 (11731388_a_at) / Fold change /veh TMPRSS6 (11731388_a_at) / RFU KRTAP10-2 (11738614_at) / Fold change /veh KRTAP10-2 (11738614_at) / RFU ARHGAP8 /// PRR5-ARHGAP8 (11727945_x_at) / Fold change /veh ARHGAP8 /// PRR5-ARHGAP8 (11727945_x_at) / RFU KRTAP5-7 /// NADSYN1 (11734609_at) / Fold change /veh KRTAP5-7 /// NADSYN1 (11734609_at) / RFU RASL12 (11751679_a_at) / Fold change /veh RASL12 (11751679_a_at) / RFU CDKN2B (11736163_a_at) / Fold change /veh CDKN2B (11736163_a_at) / RFU PRF1 (11729649_at) / Fold change /veh PRF1 (11729649_at) / RFU, ZNF638 /// ZNF638-IT1 / Fold change vs veh, ZNF638 /// ZNF638-IT1 / RFU, PANK3 / Fold change vs veh, PANK3 / RFU, SH3YL1 / Fold change vs veh, SH3YL1 / RFU, ZEB2 / Fold change vs veh, ZEB2 / RFU, NRIP1 / Fold change vs veh, NRIP1 / RFU, PTTG1IP / Fold change vs veh, PTTG1IP / RFU, CAPN2 / Fold change vs veh, CAPN2 / RFU, MED14 / Fold change vs veh, MED14 / RFU, SNORA58 / Fold change vs veh, SNORA58 / RFU, C1orf63 / Fold change vs veh, C1orf63 / RFU, LRRFIP1 / Fold change vs veh, LRRFIP1 / RFU, NDUFAF7 / Fold change vs veh, NDUFAF7 / RFU, SLC12A2 / Fold change vs veh, SLC12A2 / RFU, IBTK / Fold change vs veh, IBTK / RFU, ESF1 / Fold change vs veh, ESF1 / Fold change vs veh, TMEM50B / RFU, TAOK1 / Fold change vs veh, TAOK1 / RFU, ACBD3 / Fold change vs veh, ACBD3 / RFU, TMA16 / Fold change vs veh, TMA16 / RFU, RWDD3 / Fold change vs veh, RWDD3 / RFU, BCAT1 / Fold change vs veh, BCAT1 / RFU, EDEM3 / Fold change vs veh, EDEM3 / RFU, TMEM33 / Fold change vs veh, TMEM33 / RFU, WDR75 / Fold change vs veh, WDR75 / RFU, AHCTF1 / Fold change vs veh, AHCTF1 / RFU, TFRC / Fold change vs veh, TFRC / RFU, ZDHHC17 / Fold change vs veh, ZDHHC17 / RFU, NOM1 / Fold change vs veh, NOM1 / RFU, ARL8B / Fold change vs veh, ARL8B / RFU, ZBTB11 / Fold change vs veh, ZBTB11 / RFU, TAMM41 / Fold change vs veh, TAMM41 / RFU, KIAA1704 /// LOC100996395 / Fold change vs veh, KIAA1704 /// LOC100996395 / RFU, ING1 / Fold change vs veh, ING1 / RFU, TRMT61B / Fold change vs veh, TRMT61B / RFU, FUBP3 / Fold change vs veh, FUBP3 / RFU, TP53 / Fold change vs veh, TP53 / RFU, TNKS2 / Fold change vs veh, TNKS2 / RFU, ZFP14 / Fold change vs veh, ZFP14 / RFU, ACTR2 / Fold change vs veh, ACTR2 / RFU, PPP3R1 / Fold change vs veh, PPP3R1 / RFU, PIK3R1 / Fold change vs veh, PIK3R1 / RFU, HNRNPA1 / Fold change vs veh, HNRNPA1 / RFU, RNF170 / Fold change vs veh, RNF170 / RFU, ZNF28 / Fold change vs veh, ZNF28 / RFU, RNGTT / Fold change vs veh, RNGTT / RFU, OGT / Fold change vs veh, OGT / RFU, BRD1 / Fold change vs veh, BRD1 / RFU, MARS / Fold change vs veh, MARS / RFU, ZNF655 / Fold change vs veh, ZNF655 / RFU, FAHD1 / Fold change vs veh, FAHD1 / RFU, BDP1 / Fold change vs veh, BDP1 / RFU, LRRCC1 / Fold change vs veh, LRRCC1 / RFU, ARID1A / Fold change vs veh, ARID1A / RFU, ZNF146 / Fold change vs veh, ZNF146 / RFU, ZNF330 / Fold change vs veh, ZNF330 / RFU, GPN3 / Fold change vs veh, GPN3 / RFU, C9orf123 / Fold change vs veh, C9orf123 / RFU, N4BP2L2 / Fold change vs veh, N4BP2L2 / RFU, ARFIP1 / Fold change vs veh, ARFIP1 / RFU, FAM179B / Fold change vs veh, FAM179B / RFU, BCL10 / Fold change vs veh, BCL10 / RFU, UHRF1BP1L / Fold change vs veh, UHRF1BP1L / RFU, BET1 / Fold change vs veh, BET1 / RFU, CNOT2 / Fold change vs veh, CNOT2 / RFU, ZNF268 / Fold change vs veh, ZNF268 / Fold change vs veh, ZNF507 / RFU, DGCR2 / Fold change vs veh, DGCR2 / RFU, WDSUB1 / Fold change vs veh, WDSUB1 / Fold change vs veh, HSP90B1 /// MIR3652 / RFU, ADSS / Fold change vs veh, ADSS / RFU, GK / Fold change vs veh, GK / RFU, ZNF148 / Fold change vs veh, ZNF148 / RFU, TAF9 / Fold change vs veh, TAF9 / RFU, SLC1A5 / Fold change vs veh, SLC1A5 / RFU, SLMO2 / Fold change vs veh, SLMO2 / RFU, ABCC4 / Fold change vs veh, ABCC4 / RFU, LOC101060439 /// RAP1B / Fold change vs veh, LOC101060439 /// RAP1B / RFU, RFX7 / Fold change vs veh, RFX7 / RFU, GTPBP10 / Fold change vs veh, GTPBP10 / RFU, CNEP1R1 / Fold change vs veh, CNEP1R1 / RFU, BIVM-ERCC5 /// ERCC5 / Fold change vs veh, BIVM-ERCC5 /// ERCC5 / RFU, ILF3 / Fold change vs veh, ILF3 / RFU 11762660_at / Fold change /veh 11762660_at / RFU VCAN (11757783_s_at) / Fold change /veh VCAN (11757783_s_at) / RFU DDX43 (11728927_at) / Fold change /veh DDX43 (11728927_at) / RFU KRT8 (11758188_x_at) / Fold change /veh KRT8 (11758188_x_at) / RFU NKD1 (11759106_at) / Fold change /veh NKD1 (11759106_at) / RFU SRD5A1 (11742802_a_at) / Fold change /veh SRD5A1 (11742802_a_at) / RFU TPSAB1 /// TPSB2 (11721975_s_at) / Fold change /veh TPSAB1 /// TPSB2 (11721975_s_at) / RFU GSTM3 (11746129_a_at) / Fold change /veh GSTM3 (11746129_a_at) / RFU IL23R (11737362_x_at) / Fold change /veh IL23R (11737362_x_at) / RFU TMEM51 (11727254_a_at) / Fold change /veh TMEM51 (11727254_a_at) / RFU PIWIL2 (11732686_x_at) / Fold change /veh PIWIL2 (11732686_x_at) / RFU ORM1 (11744905_x_at) / Fold change /veh ORM1 (11744905_x_at) / RFU CCDC152 (11743942_at) / Fold change /veh CCDC152 (11743942_at) / RFU ECM1 (11717891_a_at) / Fold change /veh ECM1 (11717891_a_at) / RFU IL23R (11748794_a_at) / Fold change /veh IL23R (11748794_a_at) / RFU TNFAIP8L3 (11732012_x_at) / Fold change /veh TNFAIP8L3 (11732012_x_at) / RFU MBOAT4 (11741988_at) / Fold change /veh MBOAT4 (11741988_at) / RFU 11764193_at / Fold change /veh 11764193_at / RFU TMEM53 (11763286_at) / Fold change /veh TMEM53 (11763286_at) / RFU MAGEB2 (11727129_at) / Fold change /veh MAGEB2 (11727129_at) / RFU TMEM200A (11744735_a_at) / Fold change /veh TMEM200A (11744735_a_at) / RFU CCDC152 (11751479_a_at) / Fold change /veh CCDC152 (11751479_a_at) / RFU FAM211A (11726209_a_at) / Fold change /veh FAM211A (11726209_a_at) / RFU RGS16 (11746705_a_at) / Fold change /veh RGS16 (11746705_a_at) / RFU VCAN (11755009_s_at) / Fold change /veh VCAN (11755009_s_at) / RFU RHOB (11743442_s_at) / Fold change /veh RHOB (11743442_s_at) / RFU RGS16 (11720943_a_at) / Fold change /veh RGS16 (11720943_a_at) / RFU RGS16 (11720944_at) / Fold change /veh RGS16 (11720944_at) / RFU, VPS4B / Fold change vs veh, VPS4B / RFU, CREB1 / Fold change vs veh, CREB1 / RFU, DNAJC13 / Fold change vs veh, DNAJC13 / RFU, GNAQ / Fold change vs veh, GNAQ / RFU, CDK5R1 / Fold change vs veh, CDK5R1 / RFU, ZRANB3 / Fold change vs veh, ZRANB3 / RFU, CUL4A / Fold change vs veh, CUL4A / RFU, CCNY / Fold change vs veh, CCNY / RFU, UFL1 / Fold change vs veh, UFL1 / RFU, COG3 / Fold change vs veh, COG3 / RFU, DIAPH2 / Fold change vs veh, DIAPH2 / RFU, SKA2 / Fold change vs veh, SKA2 / RFU, AFF3 / Fold change vs veh, AFF3 / RFU, LMF1 / Fold change vs veh, LMF1 / RFU, IPO11 / Fold change vs veh, IPO11 / RFU, DFFB / Fold change vs veh, DFFB / RFU, FOXP1 / Fold change vs veh, FOXP1 / RFU, CARD8 / Fold change vs veh, CARD8 / RFU, STRN3 / Fold change vs veh, STRN3 / RFU, ADK / Fold change vs veh, ADK / RFU, RASSF2 / Fold change vs veh, RASSF2 / RFU, WIPF1 / Fold change vs veh, WIPF1 / RFU, LARP1B / Fold change vs veh, LARP1B / RFU, RASA1 / Fold change vs veh, RASA1 / RFU, RB1 / Fold change vs veh, RB1 / RFU, PPFIA1 / Fold change vs veh, PPFIA1 / RFU, MAT2A / Fold change vs veh, MAT2A / RFU, CCT5 / Fold change vs veh, CCT5 / RFU, WDR92 / Fold change vs veh, WDR92 / RFU, CUX1 / Fold change vs veh, CUX1 / RFU, TTC7A / Fold change vs veh, TTC7A / RFU, TMEM135 / Fold change vs veh, TMEM135 / RFU, DEPTOR / Fold change vs veh, DEPTOR / RFU, CPM / Fold change vs veh, CPM / RFU, DNAJB6 / Fold change vs veh, DNAJB6 / RFU, CACNA2D3 / Fold change vs veh, CACNA2D3 / RFU, DTX4 / Fold change vs veh, DTX4 / RFU, TFCP2 / Fold change vs veh, TFCP2 / RFU, GMCL1 /// GMCL1P1 / Fold change vs veh, GMCL1 /// GMCL1P1 / RFU, AEBP2 / Fold change vs veh, AEBP2 / RFU, SNHG1 /// SNORD22 /// SNORD25 /// SNORD26 /// SNORD27 /// SNORD28 /// SNORD29 /// SNORD31 / Fold change vs veh, SNHG1 /// SNORD22 /// SNORD25 /// SNORD26 /// SNORD27 /// SNORD28 /// SNORD29 /// SNORD31 / Fold change (Aza/veh), C12orf56 (ProbeSet 11735607_a_at) / Fold change (ACY-1035/veh), C12orf56 (ProbeSet 11735607_a_at) / Fold change (Aza/veh), FGFR1OP (ProbeSet 11751329_s_at) / Fold change (ACY-1035/veh), FGFR1OP (ProbeSet 11751329_s_at) / Fold change (Aza/veh), VPS36 (ProbeSet 11739960_a_at) / Fold change (ACY-1035/veh), VPS36 (ProbeSet 11739960_a_at) / RFU SYPL1 (11715823_x_at) / Fold change /veh SYPL1 (11715823_x_at) / RFU IGFBP7 (11715501_s_at) / Fold change /veh IGFBP7 (11715501_s_at) / RFU REEP3 (11722064_at) / Fold change /veh REEP3 (11722064_at) / RFU IGLL1 (11728026_x_at) / Fold change /veh IGLL1 (11728026_x_at): dose or concentration left out as unconfirmed
Conditions: MV-4-11 cells, 48 hours

Nc1ncn([C@@H]2O[C@H](CO)[C@@H](O)[C@H]2O)c(=O)n1 [azacitidine]
RFU SYPL1 (11715823_x_at): 860.69 RFU
